Measurements as given in patent publication EP0638079B1, “DEAZAAMINOPTERINS FOR TREATMENT OF INFLAMMATION” (SRI INTERNATIONAL, priority 1992, dated 1993).

Legend:
[1] = system: human liver cell line (Chang liver)
[2] = system: L. casei; conditions: folate dependent bacteria; cited from earlier work
[3] = system: S. faecium; conditions: folate dependent bacteria; cited from earlier work
[4] = system: DBA/1 mice; assay: Type II collagen arthritis mouse model (visual inflammation, rear paw swelling); type: in vivo; conditions: for No Mice on day indicated (visual evidence of inflammation), Day 30 / No Mice on day indicated (visual evidence of inflammation), Day 37 / No Mice on day indicated (visual evidence of inflammation), Day 44 / Ave. thickness of rear paws (mm) over days 30-44, Treated: Table IIA; for No Mice on day indicated (visual evidence of inflammation), Day 30 / No Mice on day indicated (visual evidence of inflammation), Day 37 / No Mice on day indicated (visual evidence of inflammation), Day 44 / No mice affected on day indicated (visual evidence of inflammation), Day 30 / No mice affected on day indicated (visual evidence of inflammation), Day 37 / No mice affected on day indicated (visual evidence of inflammation), Day 44: affected mice/mice in group; for No Mice on day indicated (visual evidence of inflammation), Day 30: dose (mg/kg) per compound as in Dose column; for No Mice on day indicated (visual evidence of inflammation), Day 37 / No Mice on day indicated (visual evidence of inflammation), Day 44 / No mice affected on day indicated (visual evidence of inflammation), Day 30: dose per compound as in Dose column; for Ave. thickness of rear paws (mm) over days 30-44, Treated / Avg. thickness of rear paws (mm) over days 30-44, Treated: caliper; for Avg. thickness of rear paws (mm) over days 30-44, Treated / No mice affected on day indicated (visual evidence of inflammation), Day 30 / No mice affected on day indicated (visual evidence of inflammation), Day 37 / No mice affected on day indicated (visual evidence of inflammation), Day 44: Table IIB
From the text: The following data illustrate administration to mice of several deazaaminopterin compounds of the invention and methotrexate in the evaluation of anti-inflammatory activity. The data are presented as two separate observations, the visually observed presence of inflammation in the mouse, and the caliper-measured degree of swelling of the rear paws of the mouse.
The efficacy evaluation used a mouse model of inflammatory disease that occurs in response to an antigenic challenge with Type II collagen [J. S. Courtenay et al., Nature, 283, 666-668 (1980)].
The fundamental aspects of the model allow it to serve as a representative presentation of human disease. The parallels between the known aspects of the mouse model and rheumatoid arthritis include a humoral response in which antibodies are produced to an antigen that is present in the joint tissue and the antigenic challenge is accompanied by cell-mediated aspects of immunity. The resultant inflammation of the joint tissue yields facets of periostitis, synovial lining hyperplasia, degradation of bone and cartilage and pannus and new bone formation.
The basic elements of the model included the immunization of DBA/1 mice with a suspension of fetal bovine Type II collagen (1 mg/ml) prepared in complete Freund's adjuvant. The primary injection was given using 0.1 ml of the collagen emulsion giving a total of 0.1 mg of Type II collagen per mouse. The animals were then given a booster injection of Type II collagen (100 µg in 0.01 M acetic acid ) on day 21 by intraperitoneal injection.
Typically, in this model the untreated positive control animals have an incidence of arthritis ranging from 90 to 100% of injected animals at day 44.
The effect of methotrexate and test compounds on the extent of inflammation was determined by direct analysis of paw swelling using caliper measurements. The results are presented in Table IIA, and show a direct correlation between the decrease in the number of animals having disease and a decrease in the extent of inflammation, as determined by paw swelling. Table IIA […]

[5] = system: P388 leukemia; conditions: against P388 leukemia in BDF1 mice; cited from earlier work
[6] = system: L1210; conditions: against L1210 in BDF1 mice; cited from earlier work
[7] = system: L1210 murine leukemia cells; conditions: cited from earlier work
[8] = molecular target: T1, bovine liver dihydrofolate reductase (Bos taurus, UniProt P00376); conditions: cited from earlier work
T1 construct: host or cells: bovine liver
T1 sequence (P00376 1-187): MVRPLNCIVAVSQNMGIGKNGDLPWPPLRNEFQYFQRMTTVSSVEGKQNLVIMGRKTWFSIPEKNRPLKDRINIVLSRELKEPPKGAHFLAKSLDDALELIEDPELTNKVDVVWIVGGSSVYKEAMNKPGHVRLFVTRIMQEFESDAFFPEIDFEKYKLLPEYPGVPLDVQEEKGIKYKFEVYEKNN

[9] = 30 day measurement (first value)
[10] = 44 day measurement (second value)

Row | SMILES | Ratio Of Cytotoxic Potency Versus Methotrexate For Inhibition Of Human Liver Cell Growth In Culture [1] | No Mice on day indicated (visual evidence of inflammation), Day 30 [4] | No Mice on day indicated (visual evidence of inflammation), Day 37 [4] | No Mice on day indicated (visual evidence of inflammation), Day 44 [4] | other results
1 | Nc1nc(N)c2cc(CCc3ccc(C(=O)NC(CCC(=O)O)C(=O)O)cc3)cnc2n1 (stereo not drawn) [5,10-Dideazaaminopterin] | 2.46 |  |  |  | growth inhibition [2]: effective growth inhibitor; growth inhibition [3]: effective growth inhibitor
2 | CCc1c(CNc2ccc(C(=O)NC(CCC(=O)O)C(=O)O)cc2)cnc2nc(N)nc(N)c12 (stereo not drawn) [5-Et-10-H (5-Et-5-DA)] | 4.50 | 2/8 | 5/8 | 2/8 | 
3 | CCc1c(CN(C)c2ccc(C(=O)NC(CCC(=O)O)C(=O)O)cc2)cnc2nc(N)nc(N)c12 (stereo not drawn) [5-Et-10-Me (5-Et-5-DMTX)] | 3.18 | 0/7 | 1/7 | 1/7 | 
4 | C#CCN(Cc1cnc2nc(N)nc(N)c2c1)c1ccc(C(=O)NC(CCC(=O)O)C(=O)O)cc1 (stereo not drawn) [5-H-10-Propargyl (10-Prgl-5-DA), 10-propargyl-5-deazaaminopterin] | 1.26 | 3/8 | 2/8 | 6/8 | 
5 | C=CCN(Cc1cnc2nc(N)nc(N)c2c1C)c1ccc(C(=O)NC(CCC(=O)O)C(=O)O)cc1 (stereo not drawn) [5-Me-10-Allyl (5-Me-10-Allyl-5-DA)] |  | 0/8 | 0/8 | 0/8 | 
6 | Cc1c(CNc2ccc(C(=O)NC(CCC(=O)O)C(=O)O)cc2)cnc2nc(N)nc(N)c12 (stereo not drawn) [5-Me-10-H (5-Me-5-DA), 5-methyl-5-deazaaminopterin] | 4.39 |  | 2/8 | 6/8 | 
7 | Cc1c(CN(C)c2ccc(C(=O)NC(CCC(=O)O)C(=O)O)cc2)cnc2nc(N)nc(N)c12 (stereo not drawn) [5-Me-10-Me (5-Me-5-DMTX), 5-methyl-5-deazamethotrexate] | 2.79 | 1/8 | 4/8 | 5/8 | 
8 | C#CCN(Cc1cnc2nc(N)nc(N)c2c1C)c1ccc(C(=O)NC(CCC(=O)O)C(=O)O)cc1 (stereo not drawn) [5-Me-10-Propargyl (5-Me-10-Prgl-5-DA), 10-propargyl-5-methyl-5-deazaaminopterin] | 21.18 | 3/8 | 3/8 | 2/8 | Ave. thickness of rear paws (mm) over days 30-44, Treated ([4]; 30 day measurement (first value in parentheses)): (2.29-2.29) mm; Ave. thickness of rear paws (mm) over days 30-44, Treated ([4]; 44 day measurement (second value in parentheses)): (2.29-2.29) mm
9 | CCCc1c(CNc2ccc(C(=O)N[C@@H](CCC(=O)O)C(=O)O)cc2)cnc2nc(N)nc(N)c12 [5-Pr-10-H (5-Pr-5-DA), N-[4-[[(2,4-Diamino-5-propylpyrido[2,3-d]pyrimidin-6-yl)methyl]amino]benzoyl]-L-glutamic Acid] | 1.78 | 0/7 | 0/7 | 0/7 | 
10 | CC(Cc1cnc2nc(N)nc(N)c2c1)c1ccc(C(=O)NC(CCC(=O)O)C(=O)O)cc1 (stereo not drawn) [10-Me-5,10-Dideazaaminopterin] | 2.69 |  |  |  | 
11 | CCCCc1c(CNc2ccc(C(=O)N[C@@H](CCC(=O)O)C(=O)O)cc2)cnc2nc(N)nc(N)c12 [Compound 5-Bu-10-NH] | 7.20 |  |  |  | 
12 | Cc1c(CNc2ccc(C(=O)N[C@@H](CCC(=O)O)C(=O)O)s2)cnc2nc(N)nc(N)c12 [Example B', N-[5-[[(2,4-Diamino-5-methylpyrido[2,3-d]pyrimidin-6-yl)methyl]amino]thiophene-2-carbonyl]-L-glutamic Acid] |  |  |  |  | Avg. thickness of rear paws (mm) over days 30-44, Treated [4, 9]: 2.19 mm; Avg. thickness of rear paws (mm) over days 30-44, Treated [4, 10]: 2.33 mm; No mice affected on day indicated (visual evidence of inflammation), Day 30 [4]: 0/5; No mice affected on day indicated (visual evidence of inflammation), Day 37 [4]: 2/5; No mice affected on day indicated (visual evidence of inflammation), Day 44 [4]: 2/5
13 | Cc1c(CN(C)c2ccc(C(=O)N[C@@H](CCC(=O)O)C(=O)O)s2)cnc2nc(N)nc(N)c12 [Example C', N-[5-[[(2,4-Diamino-5-methylpyrido[2,3-d]pyrimidin-6-yl)methyl]methylamino]thiophene-2-carbonyl]-L-glutamic Acid] |  |  |  |  | Avg. thickness of rear paws (mm) over days 30-44, Treated [4, 9]: 2.13 mm; Avg. thickness of rear paws (mm) over days 30-44, Treated [4, 10]: 2.27 mm; No mice affected on day indicated (visual evidence of inflammation), Day 30 [4]: 0/8; No mice affected on day indicated (visual evidence of inflammation), Day 37 [4]: 1/8; No mice affected on day indicated (visual evidence of inflammation), Day 44 [4]: 3/8
14 | CCc1c(CN(C)c2ccc(C(=O)N[C@@H](CCC(=O)O)C(=O)O)s2)cnc2nc(N)nc(N)c12 [Example D', N-[5-[[(2A-Diamino-5-ethylpyrido[2,3d] -pyrimidin-6-yl)methyl]methylamino]thiophene-2-carbonyl]-L-glutamic Acid] |  |  |  |  | Avg. thickness of rear paws (mm) over days 30-44, Treated [4, 9]: 2.13 mm; Avg. thickness of rear paws (mm) over days 30-44, Treated [4, 10]: 2.32 mm; No mice affected on day indicated (visual evidence of inflammation), Day 30 [4]: 2/8; No mice affected on day indicated (visual evidence of inflammation), Day 37 [4]: 4/8; No mice affected on day indicated (visual evidence of inflammation), Day 44 [4]: 7/8
15 | Nc1nc(N)c2cc(CNc3ccc(C(=O)N[C@@H](CCC(=O)O)C(=O)O)cc3)cnc2n1 [L-5-deazaaminopterin] |  |  |  |  | in vivo potency compared with methotrexate [5]: equipotent with methotrexate; in vivo potency compared with methotrexate [6]: equipotent with methotrexate; potency as inhibitor compared with methotrexate [7]: equipotent with methotrexate; potency as inhibitor compared with methotrexate [8]: equipotent with methotrexate
16 | CN(Cc1cnc2nc(N)nc(N)c2n1)c1ccc(C(=O)N[C@@H](CCC(=O)O)C(=O)O)cc1 [MTX, methotrexate, reference compound] | 1.00 | 1/22 | 1/22 | 6/22 | Avg. thickness of rear paws (mm) over days 30-44, Treated [4, 9]: 2.128 mm; Avg. thickness of rear paws (mm) over days 30-44, Treated [4, 10]: 2.34 mm; No mice affected on day indicated (visual evidence of inflammation), Day 30 [4]: 1/22; No mice affected on day indicated (visual evidence of inflammation), Day 37 [4]: 1/22; No mice affected on day indicated (visual evidence of inflammation), Day 44 [4]: 6/22; effectiveness of prophylactic regimen ([4]; drug begun two days prior to administration of antigen versus starting drug at day 19): more effective than starting drug at day 19
